In brackets after ≈: the same amount, converted by molar mass.
Key:
[1] = tested on: Mus musculus; assay: Ex vivo inhibition of FAAH in ip dosed mouse brain assessed as drug concentration required to inhibit [3H]ethanolamine degradation; format: functional; conditions: read-out: ID50 (the source's name)
[2] = tested on: Mus musculus; assay: Ex vivo inhibition of FAAH in po dosed mouse brain assessed as drug concentration required to inhibit [3H]ethanolamine degradation; format: functional; conditions: read-out: ID50 (the source's name)
[3] = Dissociation constant, pKa of the compound; format: physicochemical
[4] = Inhibition of Calcium channel (unknown origin); design: species or system Homo sapiens
[5] = tested on: Cavia porcellus; assay: Antiinflammatory activity in po dosed substance P-induced guinea pig model of dermal inflammation; format: functional; conditions: read-out: ID50 (the source's name)
[6] = Stability of the compound at pH 2 assessed as half-life; format: physicochemical; conditions: buffer
[7] = tested on: Plasmodium falciparum; assay: Antiplasmodial activity against Plasmodium falciparum W2 assessed as inhibition of parasite growth; format: functional, organism-based
[8] = Half-life in iv dosed rat plasma; format: ADME, organism-based
[9] = Oral bioavailability in mouse; format: ADME, organism-based; conditions: in vivo
[10] = Stability of the compound in 0.01 N HCL at pH 2.0 assessed as half-life; format: physicochemical
[11] = Half-life in po dosed rat; format: ADME, organism-based; conditions: in vivo
[12] = Inhibition of Acinetobacter baumannii beta-lactamase OXA-235
[13] = Inhibition of Acinetobacter baumannii beta-lactamase OXA-143
[14] = Inhibition of Acinetobacter baumannii beta-lactamase OXA-24
[15] = tested on: Mus musculus; assay: Anticonvulsant activity in MES induced mouse model of seizure at 75 mg/kg, po measured after 4 hrs relative to control; format: functional
[16] = tested on: Human immunodeficiency virus 1; assay: Antiviral activity against HIV1 infected in human MT4 cells assessed as inhibition of viral replication; format: functional, organism-based; conditions: Human immunodeficiency virus 1, MT4
[17] = tested on: Human immunodeficiency virus 1; assay: Selectivity index, ratio of EC50 for antiviral activity against HIV-1 G140S/Q148R mutant to EC50 for antiviral activity against wild-type HIV-1; format: functional
[18] = Unbound fraction in human plasma; format: ADME, cell-free
[19] = biological target: PXR (NR1I2) (Homo sapiens, UniProt O75469); assay: Activation of PXR (unknown origin) in human DPX2 cells assessed as maximal efficacy at 15 uM relative to control; format: cell-based
[20] = Solubility of the compound at pH 7 incubated for 12 hrs by UPLC analysis; format: physicochemical; conditions: buffer, pH 7, 12 h
[21] = Bioavailability in rat at 0.5 mg/kg, iv measured after 30 mins by LC-MS/MS analysis; format: ADME, organism-based; conditions: in vivo
[22] = Bioavailability in dog at 1 mg/kg, iv measured after 30 mins by LC-MS/MS analysis; format: ADME, organism-based, Canis lupus familiaris; conditions: in vivo
[23] = Half-life in human; format: ADME
[24] = Drug concentration in rat plasma at 10 mg/kg, po measured after 90 mins; format: ADME, organism-based
[25] = Oral bioavailability in human; format: ADME, organism-based; conditions: in vivo
[26] = tested on: CCRF-CEM; assay: Anticancer activity against human CCRF-CEM cells; format: functional, cell-based
[27] = Solubility of the compound at pH 7.4; format: physicochemical; conditions: buffer
[28] = biological target: Substance-P receptor (Homo sapiens, UniProt P25103); assay: Displacement of [125I]-labeled SP from human NK-1 receptor expressed in CHO cells at 1 uM relative to control; format: cell-based; conditions: filed as antagonist
[29] = biological target: Sodium-dependent dopamine transporter (Homo sapiens, UniProt Q01959); assay: Inhibition of dopamine transporter (unknown origin)
[30] = biological target: Sodium-dependent serotonin transporter (Homo sapiens, UniProt P31645); assay: Inhibition of SERT (unknown origin)
[31] = biological target: Sterol O-acyltransferase 1 (Rattus norvegicus, UniProt O70536); assay: Inhibition of ACAT in rat
[32] = Drug degradation in citrate buffer at pH 4 measured after 18 hrs; format: physicochemical; conditions: read-out: Drug degradation
[33] = Drug degradation in citrate buffer at pH 8.5 measured after 18 hrs; format: physicochemical; conditions: read-out: Drug degradation
[34] = species: Mus musculus; assay: Analgesic activity in mouse assessed as protection against phenylbenzoquinone-induced writhing; format: functional
[35] = biological target: Polymerase acidic protein (Influenza A virus (A/Puerto Rico/8/1934(H1N1)), UniProt P03433); assay: Inhibition of Influenza A virus CEN
[36] = tested on: Mus musculus; assay: Anticonvulsant activity in MES induced mouse model of seizure at 10 mg/kg, po measured after 4 hrs relative to control; format: functional
[37] = Drug excretion in human urine assessed as unchanged drug excreted; format: ADME; conditions: read-out: Drug excretion
[38] = Half-life in human plasma; format: ADME
[39] = Stability of the compound at pH 7.4 aqueous phosphate buffer assessed as half-life; format: physicochemical
[40] = Stability of the compound assessed as compound hydrolysis by measuring rate constant; format: physicochemical

Sodium-dependent dopamine transporter, sequence (Q01959 whole entry): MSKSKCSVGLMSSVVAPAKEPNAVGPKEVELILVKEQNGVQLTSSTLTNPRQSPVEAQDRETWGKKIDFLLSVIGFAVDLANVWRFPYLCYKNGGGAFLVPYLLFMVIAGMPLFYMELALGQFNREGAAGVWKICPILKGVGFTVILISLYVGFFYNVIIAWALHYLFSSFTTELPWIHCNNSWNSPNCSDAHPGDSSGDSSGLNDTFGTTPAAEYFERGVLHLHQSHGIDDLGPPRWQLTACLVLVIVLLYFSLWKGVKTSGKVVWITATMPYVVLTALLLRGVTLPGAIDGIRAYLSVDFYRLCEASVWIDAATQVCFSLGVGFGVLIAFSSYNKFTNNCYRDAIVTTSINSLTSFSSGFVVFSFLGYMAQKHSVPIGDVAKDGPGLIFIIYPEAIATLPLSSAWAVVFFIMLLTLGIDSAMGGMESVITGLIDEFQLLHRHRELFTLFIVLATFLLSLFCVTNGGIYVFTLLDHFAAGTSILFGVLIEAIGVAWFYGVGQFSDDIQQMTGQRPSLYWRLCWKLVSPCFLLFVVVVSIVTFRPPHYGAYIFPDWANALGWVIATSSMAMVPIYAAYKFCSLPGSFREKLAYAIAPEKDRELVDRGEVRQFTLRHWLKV
PXR (NR1I2), sequence (O75469 whole entry): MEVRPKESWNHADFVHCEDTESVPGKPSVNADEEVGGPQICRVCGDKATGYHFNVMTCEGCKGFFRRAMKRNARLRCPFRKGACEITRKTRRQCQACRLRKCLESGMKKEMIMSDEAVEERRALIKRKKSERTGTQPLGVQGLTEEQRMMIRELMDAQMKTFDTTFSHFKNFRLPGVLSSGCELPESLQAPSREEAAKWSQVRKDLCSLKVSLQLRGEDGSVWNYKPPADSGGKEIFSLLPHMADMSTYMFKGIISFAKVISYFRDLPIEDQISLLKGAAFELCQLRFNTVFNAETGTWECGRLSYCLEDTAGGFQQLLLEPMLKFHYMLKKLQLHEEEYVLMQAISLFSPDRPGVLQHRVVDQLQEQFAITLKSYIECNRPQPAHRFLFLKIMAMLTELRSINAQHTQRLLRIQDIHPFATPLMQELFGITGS
Substance-P receptor, sequence (P25103 whole entry): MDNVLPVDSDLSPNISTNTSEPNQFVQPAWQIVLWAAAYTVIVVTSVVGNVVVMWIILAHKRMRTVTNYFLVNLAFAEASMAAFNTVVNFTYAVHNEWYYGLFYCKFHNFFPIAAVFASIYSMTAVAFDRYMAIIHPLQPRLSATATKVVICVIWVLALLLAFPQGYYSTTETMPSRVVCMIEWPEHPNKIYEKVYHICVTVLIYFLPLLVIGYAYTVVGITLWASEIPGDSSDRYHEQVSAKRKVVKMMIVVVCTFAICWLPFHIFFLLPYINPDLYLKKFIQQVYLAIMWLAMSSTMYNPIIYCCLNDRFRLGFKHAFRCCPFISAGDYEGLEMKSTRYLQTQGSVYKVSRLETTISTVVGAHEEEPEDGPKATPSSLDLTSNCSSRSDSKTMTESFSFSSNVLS
Sodium-dependent serotonin transporter, sequence (P31645 whole entry): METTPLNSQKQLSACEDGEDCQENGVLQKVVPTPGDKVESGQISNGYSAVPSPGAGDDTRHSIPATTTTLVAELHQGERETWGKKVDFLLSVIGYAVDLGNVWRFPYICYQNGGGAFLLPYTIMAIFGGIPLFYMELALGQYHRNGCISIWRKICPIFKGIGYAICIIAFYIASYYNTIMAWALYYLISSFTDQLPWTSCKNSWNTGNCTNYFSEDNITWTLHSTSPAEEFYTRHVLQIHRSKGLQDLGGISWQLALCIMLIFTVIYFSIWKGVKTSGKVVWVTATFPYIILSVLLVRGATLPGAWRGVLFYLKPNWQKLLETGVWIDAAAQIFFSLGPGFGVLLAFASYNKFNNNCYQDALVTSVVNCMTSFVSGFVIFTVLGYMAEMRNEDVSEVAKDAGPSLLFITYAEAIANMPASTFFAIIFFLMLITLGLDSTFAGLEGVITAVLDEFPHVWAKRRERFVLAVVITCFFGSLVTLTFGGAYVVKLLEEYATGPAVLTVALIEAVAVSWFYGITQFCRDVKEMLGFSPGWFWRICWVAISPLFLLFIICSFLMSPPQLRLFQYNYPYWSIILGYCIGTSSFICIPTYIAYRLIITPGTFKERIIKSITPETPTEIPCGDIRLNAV
Sterol O-acyltransferase 1, sequence (O70536 whole entry): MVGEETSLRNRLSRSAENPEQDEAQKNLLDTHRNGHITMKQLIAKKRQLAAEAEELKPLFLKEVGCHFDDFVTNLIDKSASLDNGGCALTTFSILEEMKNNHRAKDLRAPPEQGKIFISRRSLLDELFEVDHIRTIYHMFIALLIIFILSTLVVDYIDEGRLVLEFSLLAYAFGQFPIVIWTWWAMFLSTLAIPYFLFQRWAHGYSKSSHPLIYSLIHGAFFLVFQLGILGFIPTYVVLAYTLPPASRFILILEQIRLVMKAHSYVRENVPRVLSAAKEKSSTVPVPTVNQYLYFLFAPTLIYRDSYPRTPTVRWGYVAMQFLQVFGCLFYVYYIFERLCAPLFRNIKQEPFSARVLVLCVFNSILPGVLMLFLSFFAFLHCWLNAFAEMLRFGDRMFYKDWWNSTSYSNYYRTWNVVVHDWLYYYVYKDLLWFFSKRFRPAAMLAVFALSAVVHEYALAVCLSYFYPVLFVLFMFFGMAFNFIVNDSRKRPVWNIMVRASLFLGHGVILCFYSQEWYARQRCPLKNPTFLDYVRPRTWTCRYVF

Structure (SMILES): COc1ccc2c(cccc2[C@H]2CO[C@H](CCCNC(=O)OCC(N)=O)OC2)c1
- ED50 [1]: 0.1 mg/kg
- ED50 [2]: 0.17 mg/kg

Structure (SMILES): O=c1[nH]nc(CN2CCC[C@H](OCc3cc(C(F)(F)F)cc(C(F)(F)F)c3)[C@@H]2c2ccccc2)[nH]1
- pKa [3]: 5.3
- IC50 [4]: 13000 nM
- ED50 [5]: 0.037 mg/kg

Structure (SMILES): C[C@H]1[C@@H](O)O[C@@H]2O[C@@]3(C)CC[C@H]4[C@H](C)CC[C@@H]1[C@@]24OO3 [ARTENIMOL]
- half-life [6]: 17 h
- IC50 [7]: 0.45 nM
- half-life [8]: 0.383 h
- bioavailability [9]: 1.4%
- half-life [10]: 17 h
- half-life [11]: 0.5 h

Structure (SMILES): C[C@]1(COC(=O)Cc2ccc(O)c(O)c2)[C@H](C(=O)O)N2C(=O)/C(=C/c3ccccn3)[C@H]2S1(=O)=O
- IC50 [12]: 8 nM
- IC50 [13]: 3 nM
- IC50 [14]: 15 nM

Structure (SMILES): CC1(C)O[C@H]2[C@H](O)[C@H](O)CO[C@@]2(COS(N)(=O)=O)O1
- Activity [15]: 40%

Structure (SMILES): C[C@@H]1CCO[C@H]2Cn3cc(C(=O)NCc4ccc(F)cc4F)c(=O)c(O)c3C(=O)N12 [DOLUTEGRAVIR]
- EC50 [16]: 1.7 nM
- Ratio EC50 [17]: 4.8
- Fu [18]: 0.7%
- Emax at 15 µM [19]: 51%
- solubility [20]: 53 µg/mL (≈ 0.126 mM)
- bioavailability [21]: 52%
- bioavailability [22]: 17%
- half-life [23]: 14 h

Structure (SMILES): c1ccc(-c2nc([C@H]3OC[C@@H](CCCCN4CCSCC4)CO3)[nH]c2-c2ccccc2)cc1
- concentration at 1.5 h [24]: 2200 nM

Structure (SMILES): Nc1nc(Cl)nc2c1ncn2[C@@H]1O[C@H](CO)[C@@H](O)[C@@H]1F [CLOFARABINE]
- bioavailability [25]: 57%
- IC50 [26]: 60 nM

Structure (SMILES): Nc1nc2c(ncn2COCCO)c(=O)[nH]1 [ACYCLOVIR]
- solubility [27]: 2500 µg/mL (≈ 11.1 mM)

Structure (SMILES): Fc1ccc([C@@H]2NCCO[C@]23CC[C@@H](c2ccccc2C(F)(F)F)CO3)cc1
- Activity [28]: 47%

Structure (SMILES): COC(=O)[C@H]1[C@@H](c2ccc(Cl)c(Cl)c2)C[C@@H]2CC[C@H]1O2
- IC50 [29]: 3.27 nM
- IC50 [30]: 4.67 nM

Structure (SMILES): Nc1nc(O)c2ncn(COC(CO)CO)c2n1 [GANCICLOVIR]
- solubility [27]: 2000 µg/mL (≈ 7.84 mM)

Structure (SMILES): Cc1cc(C)n(CCCC[C@H]2CO[C@@H](c3nc(-c4ccccc4)c(-c4ccccc4)[nH]3)OC2)n1
- IC50 [31]: 75 nM

Structure (SMILES): COc1ccc(C2=CN(CNC(C)=O)CC2=O)cc1
- pKa [3]: < 6
- degraded at 18 h [32]: < 1%
- degraded at 18 h [33]: 40%

Structure (SMILES): c1ccc([C@@]23OC[C@@H](CCn4c2nc2ccccc24)O3)cc1
- ED50 [34]: 100 mg/kg

Structure (SMILES): O=C1c2c(O)c(=O)ccn2N([C@@H]2c3ccccc3SCc3c2ccc(F)c3F)[C@@H]2COCCN12 [BALOXAVIR]
- half-life [23]: 79 h
- IC50 [35]: 2.5 nM

Structure (SMILES): CC1(C)O[C@@H]2[C@@H](CO[C@@]3(COS(N)(=O)=O)OC(C)(C)O[C@@H]23)O1 [TOPIRAMATE]
- Activity [36]: 80%
- bioavailability [25]: 80%
- dose excreted [37]: 70%
- half-life [38]: 21 h

Structure (SMILES): FC1(F)[C@H]2O[C@@H]1[C@H](COCc1ccccc1)[C@@H](COCc1ccccc1)O2
- half-life [39]: > 720 h
- K [40]: 2.4 10^-3/M/s

Structure (SMILES): COC(=O)OCOc1c2n(ccc1=O)N([C@@H]1c3ccccc3SCc3c1ccc(F)c3F)[C@@H]1COCCN1C2=O [BALOXAVIR MARBOXIL]
- IC50 [35]: 530 nM

Structure (SMILES): C[C@]1(Cn2ccnn2)[C@H](C(=O)O)N2C(=O)C[C@H]2S1(=O)=O [TAZOBACTAM]
- IC50 [12]: 4880 nM
- IC50 [13]: 5900 nM
- IC50 [14]: 27900 nM

Structure (SMILES): O=c1[nH]nc(CN2CCO[C@H](OCc3cc(C(F)(F)F)cc(C(F)(F)F)c3)[C@@H]2c2ccccc2)[nH]1
- pKa [3]: < 3
- IC50 [4]: 12000 nM
- ED50 [5]: 0.009 mg/kg

— ChEMBL document CHEMBL5244275, “Geminal Diheteroatomic Motifs: Some Applications of Acetals, Ketals, and Their Sulfur and Nitrogen Homologues in Medicinal Chemistry and Drug Design” (J Med Chem, 2021)
